Active and inactive are the calls of the source. No cut-off for these calls is given here.
Experiments:
[1] = system: PC-12; experiment: Induction of HSP70 expression in rat PC12 cells at 10 uM incubated for 4 hrs by Western blot analysis; assay type: functional, cell-based
[2] = system: PC-12; experiment: Induction of HSP70 expression in rat PC12 cells at 10 to 20 uM incubated for 4 hrs by Western blot analysis; assay type: functional, cell-based
[3] = system: PC-12; experiment: Induction of HSP70 expression in rat PC12 cells at 7.5 uM incubated for 4 hrs by Western blot analysis; assay type: functional, cell-based
[4] = system: PC-12; experiment: Induction of HSP70 expression in rat PC12 cells at 10 uM by Western blot analysis; assay type: functional, cell-based; conditions: TDE = time-dependent effect
[5] = system: PC-12; experiment: Induction of HSP70 expression in rat PC12 cells at 10 uM incubated for 24 hrs by Western blot analysis; assay type: functional, cell-based
[6] = system: PC-12; experiment: Induction of HSP70 in rat PC12 cells assessed as upregulation of HSP70 mRNA at 10 uM incubated for 4 hrs by qRT-PCR analysis; assay type: cell-based
[7] = system: PC-12; experiment: Cytotoxicity against rat PC12 cells assessed as reduction in cell viability at 30 uM incubated for 1 day by MTT assay relative to control; assay type: cell-based; conditions: pc-12, 24 h
[8] = system: PC-12; experiment: Induction of HSP70 expression in rat PC12 cells at 10 uM incubated for 4 hrs in presence of human betaNGF by Western blot analysis; assay type: functional, cell-based
[9] = system: PC-12; experiment: Induction of HSP70 expression in rat PC12 cells at 5 to 30 uM incubated for 4 hrs by Western blot analysis; assay type: functional, cell-based

| Molecule | Activity [1] | also measured |
| --- | --- | --- |
| TEPRENONE | inactive |  |
| COC(=O)[C@H](Cc1c[nH]cn1)NCc1cc(N(C)C)cc(CN[C@@H](Cc2cn(Cc3ccccc3)cn2)C(=O)OC)n1 | inactive |  |
| COC(=O)[C@H](Cc1c[nH]cn1)NCc1cc(N(C)C)cc(CN[C@@H](Cc2cn(C(c3ccccc3)(c3ccccc3)c3ccccc3)cn2)C(=O)OC)n1 | Active | Activity [2]: Active; Activity [3]: inactive; Activity [4]: Tde; Activity [5]: Active; Activity [6]: Active; Activity [7]: > 50%; Activity [8]: Active |
| COC(=O)[C@H](Cc1c[nH]cn1)NCc1cc(N(C)C)cc(CN[C@@H](Cc2cn(C)cn2)C(=O)OC)n1 | inactive |  |
| BLEOMYCIN | inactive | Activity [9]: inactive |
| COC(=O)[C@H](Cc1c[nH]cn1)NCc1cccc(CN[C@@H](Cc2cn(C(c3ccccc3)(c3ccccc3)c3ccccc3)cn2)C(=O)OC)c1 | inactive |  |
| COC(=O)[C@H](Cc1c[nH]cn1)NCc1cccc(CN[C@@H](Cc2cn(C(c3ccccc3)(c3ccccc3)c3ccccc3)cn2)C(=O)OC)n1 | Active | Activity [8]: Active |
| COC(=O)[C@H](Cc1cn(C(c2ccccc2)(c2ccccc2)c2ccccc2)cn1)NCc1cc(N(C)C)cc(CN[C@@H](Cc2cn(C(c3ccccc3)(c3ccccc3)c3ccccc3)cn2)C(=O)OC)n1 | inactive |  |
| COC(=O)[C@H](Cc1cn(C)cn1)NCc1cc(N(C)C)cc(CN[C@@H](Cc2cn(C)cn2)C(=O)OC)n1 | inactive |  |
| COC(=O)[C@H](Cc1cn(Cc2ccccc2)cn1)NCc1cc(N(C)C)cc(CN[C@@H](Cc2cn(Cc3ccccc3)cn2)C(=O)OC)n1 | inactive |  |

— ChEMBL document CHEMBL4616622, “HSP70 induction by bleomycin metal core analogs” (Bioorg Med Chem Lett, 2020)
